Source: paper PMC6429262, “Design and Synthesis of Novel Anti-Proliferative Emodin Derivatives and Studies on their Cell Cycle Arrest, Apoptosis Pathway and Migration” (Molecules, 2019)

Key:
HepG2 cells = test: CellTiter-Glo Luminescent Cell Viability Assay, HepG2; type: cell-based, human; details: HepG2 cells, 48 h, mean of three independent experiments
Experimental: (§1) The in vitro anti-proliferative activities of all the novel synthesized compounds were evaluated against HepG2 cells and MCF-7 cells by CellTiter-Glo® Luminescent Cell Viability Assay, using paclitaxel (a clinically used drug) as a positive control. Emodin (1) and compound 2 were also included for comparison.
(§2) HepG2 cells and MCF-7 cells were purchased from American Type Culture Collection (ATCC, Manassas, VA, USA). Cells were cultured in T75 flask (430641, Corning, New York, NY, USA), supplemented with high-glucose DMEM medium (Dulbecco’s modified Eagle’s medium, 11965-092, Gibco, New York, NY, USA) containing 10% Fetal bovine serum (FBS) and 1% penicillin (100 units/mL)-streptomycin (100 µg/mL) in a humidified incubator at 37 °C under 5% CO2 and 95% relative humidity (RH) atmosphere. The cells were harvested for metabolomics experiments using cell scrapers.
(§3) HepG2 cells and MCF-7 cells in 40 µL DMEM supplemented with 10% FBS were seeded at a density of 500 cells/well in 384-well cell culture plate (3570, Corning), respectively. After 24 h, the medium was substituted with fresh medium containing various sample solutions in DMSO (0.5%, v/v) at a dose range of 0.14–100 µM with 3-fold serial dilutions, and cells were cultured for another 48 h. Cells were cultured in medium without samples but 0.5% DMSO served as a control. All measurements were determined in triplicate for each treatment. After the sample treatment for 48 h, 20 µL CellTiter-Glo (G7573, Promega, Fitchburg, WI, USA) was added to each well containing cells and the contents were mixed for 2 min on an orbital shaker to induce cell lysis. The plates were then incubated at room temperature for 20 min to stabilize the luminescent signal. The luminescence was recorded on an Envision 2014 (Perkin Elmer, Waltham, MA, UAS). The IC50 values represented the samples’ concentrations required to inhibit 50% of cell proliferation and were calculated from a calibration curve by linear regression using GraphPad Prism 7.0 software (GraphPad Software, San Diego, CA, USA).

MCF-7 cells = test: CellTiter-Glo Luminescent Cell Viability Assay, MCF-7; type: cell-based, human; details: MCF-7 cells, 48 h, mean of three independent experiments
Experimental: as §1, §2, §3

| SMILES | IC50 (HepG2 cells; Homo sapiens, HepG2, 48 h) [µM] | IC50 (MCF-7 cells; Homo sapiens, MCF7, 48 h) [µM] | IC50 (HepG2 cells) [µM] | IC50 (MCF-7 cells) [µM] |
| --- | --- | --- | --- | --- |
| CSCC[C@H](N)C(=O)OCCOc1cc(O)c2c(c1)C(=O)c1cc(C)cc(O)c1C2=O [Compound 3i, (S)-1-(2-(4,5-Dihydroxy-7-methyl-9,10-dioxo-9,10-dihydroanthracen-2-yloxy)ethoxy)-4-(methylthio)-1-oxobutan-2-aminium 2,2,2-trifluoroacetate] | 17.2 ± 0.2 | 17.2 ± 0.41 |  |  |
| Cc1cc(O)c2c(c1)C(=O)c1cc(OCCOC(=O)C3(N)CCC3)cc(O)c1C2=O [Compound 3l, 1-((2-(4,5-Dihydroxy-7-methyl-9,10-dioxo-9,10-dihydroanthracen-2-yloxy)ethoxy)carbonyl)cyclobutan-aminium 2,2,2-trifluoroacetate] | 67.49 ± 0.56 | > 100 |  |  |
| Cc1cc(O)c2c(c1)C(=O)c1cc(OCCOC(=O)C3(N)COC3)cc(O)c1C2=O [Compound 3m, 3-((2-(4,5-Dihydroxy-7-methyl-9,10-dioxo-9,10-dihydroanthracen-2-yloxy)ethoxy)carbonyl)oxetan-3-aminium 2,2,2-trifluoroacetate] | > 100 | > 100 |  |  |
| Cc1cc(O)c2c(c1)C(=O)c1cc(OCCOC(=O)C3(N)CCCC3)cc(O)c1C2=O [Compound 3n, 1-((2-(4,5-Dihydroxy-7-methyl-9,10-dioxo-9,10-dihydroanthracen-2-yloxy)ethoxy)carbonyl)cyclopentan-aminium 2,2,2-trifluoroacetate] | 12.5 ± 0.59 | 23.5 ± 1.93 | 17.5 ± 0.59 | 18.5 ± 1.93 |
| Cc1cc(O)c2c(c1)C(=O)c1cc(OCCOC(=O)[C@H]3CCCN3)cc(O)c1C2=O [Compound 3o, (R)-2-((2-(4,5-Dihydroxy-7-methyl-9,10-dioxo-9,10-dihydroanthracen-2-yloxy)ethoxy)carbonyl)-pyrrolidinium 2,2,2-trifluoroacetate] | 17.6 ± 0.43 | 17.6 ± 0.29 |  |  |
| Cc1cc(O)c2c(c1)C(=O)c1cc(OCCOC(=O)[C@@H]3CCCN3)cc(O)c1C2=O [Compound 3p, (S)-2-((2-(4,5-Dihydroxy-7-methyl-9,10-dioxo-9,10-dihydroanthracen-2-yloxy)ethoxy)carbonyl)-pyrrolidinium 2,2,2-trifluoroacetate] | 19 ± 0.6 | 20 ± 1.82 |  |  |
| Cc1cc(O)c2c(c1)C(=O)c1cc(OCCOC(=O)[C@H](N)c3ccccc3)cc(O)c1C2=O [Compound 3q, (R)-2-(2-(4,5-Dihydroxy-7-methyl-9,10-dioxo-9,10-dihydroanthracen-2-yloxy)ethoxy)-2-oxo-1-phenyl-ethanaminium 2,2,2-trifluoroacetate] | 25.9 ± 0.48 | 28.5 ± 1.74 |  |  |
| Cc1cc(O)c2c(c1)C(=O)c1cc(OCCOC(=O)[C@@H](N)c3ccccc3)cc(O)c1C2=O [Compound 3r, (S)-2-(2-(4,5-Dihydroxy-7-methyl-9,10-dioxo-9,10-dihydroanthracen-2-yloxy)ethoxy)-2-oxo-1-phenyl-ethanaminium 2,2,2-trifluoroacetate] | 19.3 ± 1.08 | 25.7 ± 0.61 |  |  |
| Cc1cc(O)c2c(c1)C(=O)c1cc(OCCOC(=O)[C@H](N)c3ccc(O)cc3)cc(O)c1C2=O [Compound 3s, (R)-2-(2-(4,5-Dihydroxy-7-methyl-9,10-dioxo-9,10-dihydroanthracen-2-yloxy)ethoxy)-1-(4-hydroxyphenyl)-2-oxoethanaminium 2,2,2-trifluoroacetate] | 18.5 ± 0.55 | 25.9 ± 1.09 |  |  |
| Cc1cc(O)c2c(c1)C(=O)c1cc(OCCOC(=O)[C@@H](N)c3ccc(O)cc3)cc(O)c1C2=O [Compound 3t, (S)-2-(2-(4,5-Dihydroxy-7-methyl-9,10-dioxo-9,10-dihydroanthracen-2-yloxy)ethoxy)-1-(4-hydroxyphenyl)-2-oxoethanaminium 2,2,2-trifluoroacetate] | 26.1 ± 1.44 | 39.6 ± 1.97 |  |  |
| Cc1cc(O)c2c(c1)C(=O)c1cc(OCCOC(=O)[C@H](N)c3ccc(F)cc3)cc(O)c1C2=O [Compound 3u, (R)-2-(2-(4,5-Dihydroxy-7-methyl-9,10-dioxo-9,10-dihydroanthracen-2-yloxy)ethoxy)-1-(4-fluorophenyl)-2-oxoethanaminium 2,2,2-trifluoroacetate] | 14.3 ± 1.04 | 20.8 ± 0.32 |  |  |
| Cc1cc(O)c2c(c1)C(=O)c1cc(OCCOC(=O)[C@@H](N)c3ccc(F)cc3)cc(O)c1C2=O [Compound 3v, (S)-2-(2-(4,5-Dihydroxy-7-methyl-9,10-dioxo-9,10-dihydroanthracen-2-yloxy)ethoxy)-1-(4-fluorophenyl)-2-oxoethanaminium 2,2,2-trifluoroacetate] | 11.4 ± 0.77 | 22.6 ± 0.9 |  |  |
| Cc1cc(O)c2c(c1)C(=O)c1cc(OCCOC(=O)[C@H](N)Cc3ccccc3)cc(O)c1C2=O [Compound 3w, (R)-1-(2-(4,5-Dihydroxy-7-methyl-9,10-dioxo-9,10-dihydroanthracen-2-yloxy)ethoxy)-1-oxo-3-phenyl-propan-2-aminium 2,2,2-trifluoroacetate] | 31.5 ± 2.72 | 42.4 ± 1.16 |  |  |
| Cc1cc(O)c2c(c1)C(=O)c1cc(OCCOC(=O)[C@@H](N)Cc3ccccc3)cc(O)c1C2=O [Compound 3x, (S)-1-(2-(4,5-Dihydroxy-7-methyl-9,10-dioxo-9,10-dihydroanthracen-2-yloxy)ethoxy)-1-oxo-3-phenyl-propan-2-aminium 2,2,2-trifluoroacetate] | 16.2 ± 0.36 | 18.1 ± 0.32 |  |  |
| Cc1cc(O)c2c(c1)C(=O)c1cc(OCCOC(=O)[C@H](N)Cc3ccc(O)cc3)cc(O)c1C2=O [Compound 3y, (R)-1-(2-(4,5-Dihydroxy-7-methyl-9,10-dioxo-9,10-dihydroanthracen-2-yloxy)ethoxy)-3-(4-hydroxyphenyl)-1-oxopropan-2-aminium 2,2,2-trifluoroacetate] | 20.3 ± 1.4 | 38.3 ± 1.92 |  |  |

Continued, values first:

| IC50 (HepG2 cells; Homo sapiens, HepG2, 48 h) [µM] | IC50 (MCF-7 cells; Homo sapiens, MCF7, 48 h) [µM] | IC50 (HepG2 cells) [µM] | IC50 (MCF-7 cells) [µM] | SMILES |
| --- | --- | --- | --- | --- |
| 64.1 ± 2.37 | 86.4 ± 3.98 |  |  | Cc1cc(O)c2c(c1)C(=O)c1cc(OCCO)cc(O)c1C2=O [Compound 2, 1,8-Dihydroxy-3-(2-hydroxyethoxy)-6-methylanthracene-9,10-dione] |
| 22.7 ± 0.78 | 66.9 ± 1.65 |  |  | Cc1cc(O)c2c(c1)C(=O)c1cc(OCCOC(=O)CN)cc(O)c1C2=O [Compound 3a, 2-(2-(4,5-Dihydroxy-7-methyl-9,10-dioxo-9,10-dihydroanthracen-2-yloxy)ethoxy)-2-oxoethanaminium 2,2,2-trifluoroacetate] |
| 12 ± 1.19 | 34 ± 1.98 |  |  | Cc1cc(O)c2c(c1)C(=O)c1cc(OCCOC(=O)[C@@H](N)CO)cc(O)c1C2=O [Compound 3d, (S)-1-(2-(4,5-Dihydroxy-7-methyl-9,10-dioxo-9,10-dihydroanthracen-2-yloxy)ethoxy)-3-hydroxy-1-oxopropan-2-aminium 2,2,2-trifluoroacetate] |
| 14.4 ± 1.09 | 14.2 ± 0.23 |  |  | Cc1cc(O)c2c(c1)C(=O)c1cc(OCCOC(=O)[C@H](N)C(C)C)cc(O)c1C2=O [Compound 3e, (R)-1-(2-(4,5-Dihydroxy-7-methyl-9,10-dioxo-9,10-dihydroanthracen-2-yloxy)ethoxy)-3-methyl-1-oxobutan-2-aminium 2,2,2-trifluoroacetate] |
| 12.4 ± 0.35 | 16 ± 0.51 |  |  | Cc1cc(O)c2c(c1)C(=O)c1cc(OCCOC(=O)[C@@H](N)C(C)C)cc(O)c1C2=O [Compound 3f, (S)-1-(2-(4,5-Dihydroxy-7-methyl-9,10-dioxo-9,10-dihydroanthracen-2-yloxy)ethoxy)-3-methyl-1-oxobutan-2-aminium 2,2,2-trifluoroacetate] |
| 15.9 ± 0.33 | 16.1 ± 0.23 |  |  | Cc1cc(O)c2c(c1)C(=O)c1cc(OCCOC(=O)[C@@H](N)CC(C)C)cc(O)c1C2=O [Compound 3g, (S)-1-(2-(4,5-Dihydroxy-7-methyl-9,10-dioxo-9,10-dihydroanthracen-2-yloxy)ethoxy)-4-methyl-1-oxopentan-2-aminium 2,2,2-trifluoroacetate] |
| 14.4 ± 0.27 | 12.8 ± 1.05 |  |  | CCC(C)[C@H](N)C(=O)OCCOc1cc(O)c2c(c1)C(=O)c1cc(C)cc(O)c1C2=O (stereo partly drawn) [Compound 3h, (2S)-1-(2-(4,5-dihydroxy-7-methyl-9,10-dioxo-9,10-dihydroanthracen-2-yloxy)ethoxy)-3-methyl-1-oxo-pentan-2-aminium 2,2,2-trifluoroacetate] |
| 25.8 ± 5.28 | 29.8 ± 1.78 |  |  | Cc1cc(O)c2c(c1)C(=O)c1cc(OCCOC(=O)C(C)(C)N)cc(O)c1C2=O [Compound 3j, 1-(2-(4,5-Dihydroxy-7-methyl-9,10-dioxo-9,10-dihydroanthracen-2-yloxy)ethoxy)-2-methyl-1-oxopropan-2-aminium 2,2,2-trifluoroacetate] |
| 53.2 ± 8.7 | > 100 |  |  | Cc1cc(O)c2c(c1)C(=O)c1cc(OCCOC(=O)C3(N)CC3)cc(O)c1C2=O [Compound 3k, 1-((2-(4,5-Dihydroxy-7-methyl-9,10-dioxo-9,10-dihydroanthracen-2-yloxy)ethoxy)carbonyl)cyclopropan-aminium 2,2,2-trifluoroacetate] |
